From ChEMBL document CHEMBL6153153, “Use of Aldehyde-Alkyne-Amine Couplings to Generate Medicinal Chemistry-Relevant Linkers” (ACS Med Chem Lett, 2025)
Activity calls are given as the source filed them. The rule behind the calls is not given here.

Experiments:
[1] = Solubility of compound; format: physicochemical
[2] = Solubility of compound in 5 percent PBS buffer; format: physicochemical
[3] = Solubility of the compound in saline; format: physicochemical; conditions: buffer
HEK293 [4] = experiment: PROTAC activity at E3 ligase/short BRD4 (unknown origin) expressed in HEK293 cells assessed as induction of BRD4 degradation at 300 to 1000 nM incubated for 18 hrs in presence of MG132 by Western blot analysis; format: cell-based; conditions: Homo sapiens, dose 300-1000 nM
HEK293 [5] = experiment: PROTAC activity at E3 ligase/short BRD4 (unknown origin) expressed in HEK293 cells assessed as induction of BRD4 degradation at 300 to 1000 nM incubated for 18 hrs in presence of MLN4924 by Western blot analysis; format: cell-based; conditions: Homo sapiens, dose 300-1000 nM
HEK293 [6] = experiment: PROTAC activity at E3 ligase/long BRD4 (unknown origin) expressed in HEK293 cells assessed as induction of BRD4 degradation at 300 to 1000 nM incubated for 18 hrs in presence of MG132 by Western blot analysis; format: cell-based; conditions: Homo sapiens, dose 300-1000 nM
HEK293 [7] = experiment: PROTAC activity at E3 ligase/short BRD4 (unknown origin) expressed in HEK293 cells assessed as induction of BRD4 degradation at 300 to 1000 nM incubated for 18 hrs by Western blot analysis; format: cell-based; conditions: Homo sapiens, dose 300-1000 nM
HEK293 [8] = experiment: PROTAC activity at E3 ligase/long BRD4 (unknown origin) expressed in HEK293 cells assessed as induction of BRD4 degradation at 300 to 1000 nM incubated for 18 hrs by Western blot analysis; format: cell-based; conditions: Homo sapiens, dose 300-1000 nM
HEK293 [9] = experiment: PROTAC activity at E3 ligase/long BRD4 (unknown origin) expressed in HEK293 cells assessed as induction of BRD4 degradation at 300 to 1000 nM incubated for 18 hrs in presence of MLN4924 by Western blot analysis; format: cell-based; conditions: Homo sapiens, dose 300-1000 nM
HEK293 [10] = experiment: PROTAC activity at E3 ligase/long BRD4 (unknown origin) expressed in HEK293 cells assessed as induction of BRD4 degradation at 300 to 1000 nM incubated for 18 hrs in presence of thalidomide by Western blot analysis; format: cell-based; conditions: Homo sapiens, dose 300-1000 nM
HEK293 [11] = experiment: PROTAC activity at E3 ligase/short BRD4 (unknown origin) expressed in HEK293 cells assessed as induction of BRD4 degradation at 300 to 1000 nM incubated for 18 hrs in presence of thalidomide by Western blot analysis; format: cell-based; conditions: Homo sapiens, dose 300-1000 nM

| solubility [1] | solubility [2] | solubility [3] | Compound | Activity (HEK293 [4]) | Activity (HEK293 [5]) | Activity (HEK293 [6]) | Activity (HEK293 [7]) | Activity (HEK293 [8]) | Activity (HEK293 [9]) | Activity (HEK293 [10]) | Activity (HEK293 [11]) |
| --- | --- | --- | --- | --- | --- | --- | --- | --- | --- | --- | --- |
| Insoluble |  |  | Cc1ncsc1-c1ccc(CNC(=O)[C@@H]2C[C@@H](O)CN2C(=O)[C@@H](NC(=O)CCCCC(=O)NC2CCN(C(C#CCCSc3ccc(C(=O)NCCNC(=O)C[C@@H]4N=C(c5ccc(Cl)cc5)c5c(sc(C)c5C)-n5c(C)nnc54)cc3)C3CCOCC3)CC2)C(C)(C)C)cc1 (some centres undefined) |  |  |  |  |  |  |  |  |
| Insoluble | Insoluble | Insoluble | Cc1sc2c(c1C)C(c1ccc(Cl)cc1)=N[C@@H](CC(=O)NCC#CC(C1CCN(C(=O)COc3cccc4c3C(=O)N(C3CCC(=O)NC3=O)C4=O)CC1)N1CCN(C(=O)COc3cccc4c3C(=O)N(C3CCC(=O)NC3=O)C4=O)CC1)c1nnc(C)n1-2 (some centres undefined) |  |  |  |  |  |  |  |  |
|  | Insoluble | Insoluble | Cc1sc2c(c1C)C(c1ccc(Cl)cc1)=N[C@@H](CC(=O)NCCNC(=O)c1ccc(SCCC#CC(C3CCOCC3)N3CCC(NC(=O)COc4cccc5c4C(=O)N(C4CCC(=O)NC4=O)C5=O)CC3)cc1)c1nnc(C)n1-2 (some centres undefined) | inactive | inactive | inactive | Active | Active | inactive | inactive | inactive |
